Laboratory results as given in ChEMBL document CHEMBL1201861, “Genomics of Drug Sensitity in Cancer screening data, Wellcome Trust Sanger Institute”.

What was measured:
Test in all cases: cells
CAKI-1 = assay type: functional, cell-based; conditions: Homo sapiens
Description: SANGER: Inhibition of human CAKI-1 cell growth in a cell viability assay.

EGI-1 = assay type: functional, cell-based; conditions: Homo sapiens
Description: SANGER: Inhibition of human EGI-1 cell growth in a cell viability assay.

NB7 = assay type: functional, cell-based, Homo sapiens; conditions: Homo sapiens, NB7
Description: SANGER: Inhibition of human NB7 cell growth in a cell viability assay.

COLO-679 = assay type: functional, cell-based; conditions: Homo sapiens
Description: SANGER: Inhibition of human COLO-679 cell growth in a cell viability assay.

MEL-HO = assay type: functional, cell-based; conditions: Homo sapiens
Description: SANGER: Inhibition of human MEL-HO cell growth in a cell viability assay.

KYSE-270 = assay type: functional, cell-based; conditions: Homo sapiens
Description: SANGER: Inhibition of human KYSE-270 cell growth in a cell viability assay.

HuP-T3 = assay type: functional, cell-based; conditions: Homo sapiens
Description: SANGER: Inhibition of human HuP-T3 cell growth in a cell viability assay.

NCI-H2170 = assay type: functional, cell-based; conditions: Homo sapiens
Description: SANGER: Inhibition of human NCI-H2170 cell growth in a cell viability assay.

MFH-ino = assay type: functional, cell-based, Homo sapiens; conditions: Homo sapiens, MFH-ino
Description: SANGER: Inhibition of human MFH-ino cell growth in a cell viability assay.

MFE-280 = assay type: functional, cell-based; conditions: Homo sapiens
Description: SANGER: Inhibition of human MFE-280 cell growth in a cell viability assay.

MHH-ES-1 = assay type: functional, cell-based; conditions: Homo sapiens
Description: SANGER: Inhibition of human MHH-ES-1 cell growth in a cell viability assay.

P12-Ichikawa = assay type: functional, cell-based; conditions: Homo sapiens
SAS = assay type: functional, cell-based; conditions: Homo sapiens
Description: SANGER: Inhibition of human SAS cell growth in a cell viability assay.

NCI-H810 = assay type: functional, cell-based; conditions: Homo sapiens
Description: SANGER: Inhibition of human NCI-H810 cell growth in a cell viability assay.

OVCAR-5 = assay type: functional, cell-based; conditions: Homo sapiens
Description: SANGER: Inhibition of human OVCAR-5 cell growth in a cell viability assay.

HCC1937 = assay type: functional, cell-based; conditions: Homo sapiens
Description: SANGER: Inhibition of human HCC1937 cell growth in a cell viability assay.

NCI-H2122 = assay type: functional, cell-based; conditions: Homo sapiens
Description: SANGER: Inhibition of human NCI-H2122 cell growth in a cell viability assay.

SW1088 = assay type: functional, cell-based; conditions: Homo sapiens
Description: SANGER: Inhibition of human SW1088 cell growth in a cell viability assay.

HCC1395 = assay type: functional, cell-based; conditions: Homo sapiens
Description: SANGER: Inhibition of human HCC1395 cell growth in a cell viability assay.

U-251 = assay type: functional, cell-based; conditions: Homo sapiens
Description: SANGER: Inhibition of human U251 cell growth in a cell viability assay.

SW1783 = assay type: functional, cell-based; conditions: Homo sapiens
Description: SANGER: Inhibition of human SW1783 cell growth in a cell viability assay.

MDA-MB-175-VII = assay type: functional, cell-based; conditions: Homo sapiens
OVCAR-3 = assay type: functional, cell-based; conditions: Homo sapiens
Description: SANGER: Inhibition of human OVCAR-3 cell growth in a cell viability assay.

CP50-MEL-B = assay type: functional, cell-based; conditions: Homo sapiens
Description: SANGER: Inhibition of human CP50-MEL-B cell growth in a cell viability assay.

MCF7 = assay type: functional, cell-based; conditions: Homo sapiens
Description: SANGER: Inhibition of human MCF7 cell growth in a cell viability assay.

NCI-H1792 = assay type: functional, cell-based; conditions: Homo sapiens
Description: SANGER: Inhibition of human NCI-H1792 cell growth in a cell viability assay.

A-427 = assay type: functional, cell-based; conditions: Homo sapiens
Description: SANGER: Inhibition of human A427 cell growth in a cell viability assay.

ESS-1 = assay type: functional, cell-based; conditions: Homo sapiens
Description: SANGER: Inhibition of human ESS-1 cell growth in a cell viability assay.

SW1573 = assay type: functional, cell-based; conditions: Homo sapiens
Description: SANGER: Inhibition of human SW1573 cell growth in a cell viability assay.

DK-MG = assay type: functional, cell-based; conditions: Homo sapiens
Description: SANGER: Inhibition of human DK-MG cell growth in a cell viability assay.

T84 = assay type: functional, cell-based; conditions: Homo sapiens
Description: SANGER: Inhibition of human T84 cell growth in a cell viability assay.

NCI-H292 = assay type: functional, cell-based; conditions: Homo sapiens
Description: SANGER: Inhibition of human NCI-H292 cell growth in a cell viability assay.

SCC-4 = assay type: functional, cell-based; conditions: Homo sapiens
Description: SANGER: Inhibition of human SCC-4 cell growth in a cell viability assay.

PA-1 = assay type: functional, cell-based; conditions: Homo sapiens
Description: SANGER: Inhibition of human PA-1 cell growth in a cell viability assay.

639-V = assay type: functional, cell-based; conditions: Homo sapiens
Description: SANGER: Inhibition of human 639-V cell growth in a cell viability assay.

M14 = assay type: functional, cell-based; conditions: Homo sapiens
Description: SANGER: Inhibition of human M14 cell growth in a cell viability assay.

HSC-2 = assay type: functional, cell-based; conditions: Homo sapiens
Description: SANGER: Inhibition of human HSC-2 cell growth in a cell viability assay.

CAL-62 = assay type: functional, cell-based; conditions: Homo sapiens
Description: SANGER: Inhibition of human CAL-62 cell growth in a cell viability assay.

PANC-08-13 = assay type: functional, cell-based; conditions: Homo sapiens
Description: SANGER: Inhibition of human PANC-08-13 cell growth in a cell viability assay.

LK-2 = assay type: functional, cell-based; conditions: Homo sapiens
Description: SANGER: Inhibition of human LK-2 cell growth in a cell viability assay.

SW48 = assay type: functional, cell-based; conditions: Homo sapiens
Description: SANGER: Inhibition of human SW48 cell growth in a cell viability assay.

NCI-H522 = assay type: functional, cell-based; conditions: Homo sapiens
Description: SANGER: Inhibition of human NCI-H522 cell growth in a cell viability assay.

KYSE-450 = assay type: functional, cell-based; conditions: Homo sapiens
Description: SANGER: Inhibition of human KYSE-450 cell growth in a cell viability assay.

VMRC-RCZ = assay type: functional, cell-based; conditions: Homo sapiens
Description: SANGER: Inhibition of human VMRC-RCZ cell growth in a cell viability assay.

KU-19-19 = assay type: functional, cell-based; conditions: Homo sapiens
Description: SANGER: Inhibition of human KU-19-19 cell growth in a cell viability assay.

8305C = assay type: functional, cell-based; conditions: Homo sapiens
Description: SANGER: Inhibition of human 8305C cell growth in a cell viability assay.

NCI-H2342 = assay type: functional, cell-based; conditions: Homo sapiens
Description: SANGER: Inhibition of human NCI-H2342 cell growth in a cell viability assay.

SW780 = assay type: functional, cell-based; conditions: Homo sapiens
Description: SANGER: Inhibition of human SW780 cell growth in a cell viability assay.

RCM-1 = assay type: functional, cell-based; conditions: Homo sapiens
Description: SANGER: Inhibition of human RCM-1 cell growth in a cell viability assay.

## Cc1ccc(-n2nc(C(C)(C)C)cc2NC(=O)Nc2ccc(OCCN3CCOCC3)c3ccccc23)cc1 [DORAMAPIMOD]
CAKI-1
  IC50: > 10 µM
EGI-1
  IC50: > 10 µM
NB7
  IC50: > 10 µM
COLO-679
  IC50: > 10 µM
MEL-HO
  IC50: > 10 µM
KYSE-270
  IC50: > 10 µM
HuP-T3
  IC50: > 10 µM
NCI-H2170
  IC50: > 10 µM
MFH-ino
  IC50: > 10 µM
MFE-280
  IC50: > 10 µM
MHH-ES-1
  IC50: > 10 µM
P12-Ichikawa
  IC50: > 10 µM
SAS
  IC50: > 10 µM
NCI-H810
  IC50: > 10 µM
OVCAR-5
  IC50: > 10 µM
HCC1937
  IC50: > 10 µM
NCI-H2122
  IC50: > 10 µM
SW1088
  IC50: > 10 µM
HCC1395
  IC50: > 10 µM
U-251
  IC50: > 10 µM
SW1783
  IC50: > 10 µM
MDA-MB-175-VII
  IC50: > 10 µM
OVCAR-3
  IC50: > 10 µM
CP50-MEL-B
  IC50: > 10 µM
MCF7
  IC50: > 10 µM
NCI-H1792
  IC50: > 10 µM
A-427
  IC50: > 10 µM
ESS-1
  IC50: > 10 µM
SW1573
  IC50: > 10 µM
DK-MG
  IC50: > 10 µM
T84
  IC50: > 10 µM
NCI-H292
  IC50: > 10 µM
SCC-4
  IC50: > 10 µM
PA-1
  IC50: > 10 µM
639-V
  IC50: > 10 µM
M14
  IC50: > 10 µM
HSC-2
  IC50: > 10 µM
CAL-62
  IC50: > 10 µM
PANC-08-13
  IC50: > 10 µM
LK-2
  IC50: > 10 µM
SW48
  IC50: > 10 µM
NCI-H522
  IC50: > 10 µM
KYSE-450
  IC50: > 10 µM
VMRC-RCZ
  IC50: > 10 µM
KU-19-19
  IC50: > 10 µM
8305C
  IC50: > 10 µM
NCI-H2342
  IC50: > 10 µM
SW780
  IC50: > 10 µM
RCM-1
  IC50: > 10 µM

## CN(C)CCOc1ccc(-c2nc(-c3ccncc3)c(-c3ccc4c(c3)CC/C4=N\O)[nH]2)cc1 [SB590885]
CAKI-1
  IC50: > 5 µM
EGI-1
  IC50: > 5 µM
NB7
  IC50: > 5 µM
COLO-679
  IC50: 0.386 µM
MEL-HO
  IC50: 0.0693 µM
KYSE-270
  IC50: > 5 µM
HuP-T3
  IC50: > 5 µM
NCI-H2170
  IC50: > 5 µM
MFE-280
  IC50: > 5 µM
MHH-ES-1
  IC50: > 5 µM
P12-Ichikawa
  IC50: 3.44 µM
SAS
  IC50: > 5 µM
NCI-H810
  IC50: > 5 µM
OVCAR-5
  IC50: > 5 µM
HCC1937
  IC50: > 5 µM
NCI-H2122
  IC50: > 5 µM
SW1088
  IC50: > 5 µM
HCC1395
  IC50: > 5 µM
U-251
  IC50: > 5 µM
SW1783
  IC50: > 5 µM
MDA-MB-175-VII
  IC50: > 5 µM
OVCAR-3
  IC50: > 5 µM
CP50-MEL-B
  IC50: 1.73 µM
MCF7
  IC50: > 5 µM
NCI-H1792
  IC50: > 5 µM
A-427
  IC50: > 5 µM
ESS-1
  IC50: > 5 µM
SW1573
  IC50: > 5 µM
DK-MG
  IC50: > 5 µM
T84
  IC50: > 5 µM
NCI-H292
  IC50: 4.38 µM
SCC-4
  IC50: > 5 µM
PA-1
  IC50: > 5 µM
639-V
  IC50: > 5 µM
M14
  IC50: 0.0808 µM
HSC-2
  IC50: > 5 µM
CAL-62
  IC50: > 5 µM
PANC-08-13
  IC50: > 5 µM
LK-2
  IC50: > 5 µM
SW48
  IC50: > 5 µM
NCI-H522
  IC50: > 5 µM
KYSE-450
  IC50: > 5 µM
VMRC-RCZ
  IC50: > 5 µM
KU-19-19
  IC50: > 5 µM
8305C
  IC50: > 5 µM
NCI-H2342
  IC50: > 5 µM
SW780
  IC50: > 5 µM
RCM-1
  IC50: > 5 µM
